Results taken from ChEMBL document CHEMBL1201862, “PubChem BioAssay data set” (2004).
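Five concentrations, 48 hours, 96-well plates. Here, GI50 denotes the concentration required for 50% inhibition of growth.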 Activity calls are given as the source filed them. No stated cut-off is given here; in the data, active = GI50 up to about 1.1 µM and inactive = higher. Bridge positions count the residues as written; N and C are the ends. Where a SMILES comes first, the peptide text is derived from it. Square brackets hold non-standard residues; d marks the D form. Peptide text beside a SMILES is read from it. I, II: the chains in the order shown. The star is where a group is joined. * marks the point of attachment. Quinoxaline2carbonyl = O=C(c1cnc2ccccc2n1)*; NMeV = CN[CH](C(=O)O)C(C)C; NMeC = CN[CH](CS)C(=O)O; Boc = CC(C)(C)OC(=O)*; nBu = CCCC*

Experiments:
Assay in all cases: NCI-60 cell line screen, 48 h
[1] = system: BT-549
[2] = system: MDA-N
[3] = system: T47D
[4] = system: DU-145
[5] = system: DMS-273
[6] = system: DMS-114
[7] = system: LXFL 529

Measured: GI50

CC1NC(=O)C(NC(=O)c2cnc3ccccc3n2)COC(=O)C(C(C)C)N(C)C(=O)C2CSSCC(C(=O)N(C)C(C(C)C)C(=O)OCC(NC(=O)c3cnc4ccccc4n3)C(=O)NC(C)C(=O)N2C)N(C)C1=O (stereo unspecified) (I: Quinoxaline2carbonyl-SA[NMeC][NMeV] / II: Quinoxaline2carbonyl-SA[NMeC][NMeV]; ester I:1-II:C, I:C-II:1; disulfide I:3-II:3; configuration not given here)
active: [1] < 0.01 µM | [2] < 0.01 µM | [3] < 0.01 µM | [4] < 0.01 µM

CC1C(c2ccc(N(C)C)cc2)c2cc3c(cc2OC1N1CCCC1)OCO3 (stereo unspecified)
inactive: [1] 38.2 µM | [2] 14.6 µM | [3] 54.3 µM | [4] 66.2 µM

COC1C(O)C(C)OC(O[C@@H]2C[C@H]3CC[C@@H]4[C@H](CC[C@]5(C)[C@@H](C6=CC(=O)OC6)CC[C@]45O)[C@@]3(C)[C@H](O)C2)C1O (stereo partly specified)
active: [1] < 0.0246 µM | [2] 0.0166 µM | [3] 0.111 µM | [4] < 0.0302 µM

O=c1[nH]nc(Cc2ccccc2)n1/N=C/c1ccc([N+](=O)[O-])cc1
inactive: [1] > 100 µM | [2] > 100 µM | [3] > 100 µM | [4] > 100 µM

CO[C@@]12C[C@@H](C)C3=CCC(C)=C3CC1=C(C)C(=O)O2
inactive: [1] > 100 µM

COC(=O)Nc1nc2ccc(S(=O)(=O)SC)cc2[nH]1
inactive: [1] 10.1 µM | [3] 9.55 µM | [4] 6.05 µM

CC(=C(C(N)=O)C(N)=O)C1C=C(c2cccs2)CC(c2ccc(Cl)cc2)=C1O (stereo unspecified)
inactive: [1] 16.1 µM | [2] 35.1 µM | [3] 9.84 µM | [4] 63.5 µM

CC(=O)C1C(=O)C(=O)N(c2ccc(Cl)c(Cl)c2)C1=O (stereo unspecified)
inactive: [1] > 100 µM | [2] > 100 µM | [3] > 100 µM | [4] > 100 µM

CC1(C)CCCOc2cccc(c2)OCCCC(C)(C)C1=O
inactive: [1] 29.8 µM | [2] 45.2 µM | [3] 31.8 µM | [4] 85.3 µM

CC(=O)On1c(-c2ccccc2-c2nc3ccccc3n2OC(C)=O)nc2ccccc21
inactive: [1] 30.3 µM | [2] 21 µM | [3] 17.7 µM | [4] 49.7 µM

COC(=O)/C=C/c1cnc2c(c1)oc(=O)n2CCc1ccccn1
inactive: [1] 42.8 µM | [2] 23.8 µM | [3] 50.6 µM

O=C1CSC(c2ccccc2O)N1c1ccc2c(c1)Oc1c(Cl)c3c(c(Cl)c1=N2)Oc1cc(N2C(=O)CSC2c2ccccc2O)ccc1N=3 (stereo unspecified)
inactive: [2] 38.4 µM | [3] 37.4 µM | [4] 42.4 µM

CCCCCC(=O)OCC1(CO)C/C(=C\CC(C(C)C)C(C)C)C(=O)O1 (stereo unspecified)
inactive: [1] > 100 µM | [2] > 100 µM | [3] > 100 µM | [4] > 100 µM

COc1ccc(CC2Cc3ccccc3CCN2)cc1OC (stereo unspecified)
inactive: [1] > 50 µM | [2] > 50 µM | [3] 46.5 µM | [4] > 50 µM

O=C(/C=C/c1cccs1)c1ccc(C(=O)/C=C/c2cccs2)cc1
inactive: [1] > 100 µM | [3] > 100 µM | [4] > 100 µM

CCN1CCN(c2nc3ccccc3nc2C(=O)c2ccc(OC)c(OC)c2)CC1
inactive: [1] 21.2 µM | [2] 25.4 µM | [3] > 100 µM | [4] 30.5 µM

CCN1CCCCCCCCCC(=N/O)/C(=N\O)C1
inactive: [1] > 100 µM | [2] > 100 µM | [3] > 100 µM | [4] > 100 µM

C(=N\c1ccc(-c2cc(-c3ccccc3)nc3ccc4ccccc4c23)cc1)/c1ccccc1
inactive: [2] 24.4 µM | [4] 20.7 µM

C[Si](C)(OCCS(=O)(=O)O)C1S(=O)(=O)OCCOS1(=O)=O
inactive: [1] 27.4 µM | [2] 92 µM | [3] 36.6 µM | [4] 80.9 µM

COc1ccc(C2=NN(C(=O)c3cccnc3)C(O)(c3cc(F)c(Cl)cc3Cl)C2)cc1OC (stereo unspecified)
inactive: [1] 19.3 µM | [2] 21.3 µM | [3] 24 µM | [4] 27.9 µM

ClC1CCC2OOC1O2 (stereo unspecified)
inactive: [5] > 100 µM | [6] 43.7 µM

CC(=O)Oc1ccccc1/C=C/C(=O)/C=C/c1ccccc1OC(C)=O
inactive: [1] 1.73 µM | [2] 1.91 µM | [3] 3.49 µM | [4] 3.08 µM

CC(C)(C)c1ccc(OCCOc2ccc(C(C)(C)C)cc2NC=O)c(NC=O)c1
inactive: [1] 15.6 µM | [2] 9.12 µM | [3] 6.01 µM | [4] 17.9 µM

CC1(C)Oc2ccc3c(=O)cc(-c4ccc(F)cc4)oc3c2C1C(=O)O (stereo unspecified)
inactive: [2] > 100 µM | [3] > 100 µM | [4] > 100 µM

COC(=O)C1(C)OC(C)=NC1(C(=O)OC)C(=O)OC (stereo unspecified)
inactive: [1] > 31.6 µM | [2] > 100 µM | [3] > 100 µM | [4] > 100 µM

CC(C)C1=CC23CCC4C(C)(C(=O)O)CCCC4(C)C2CC1C1C(=O)N(CCCCCCN2C(=O)C4C5CC6C7(C)CCCC(C)(C(=O)O)C7CCC6(C=C5C(C)C)C4C2=O)C(=O)C13 (stereo unspecified)
inactive: [2] 11.1 µM | [3] 21.1 µM | [4] > 10 µM

CCCCCCCC/C=C/CCCCCCCC(=O)N(O)C1CC(n2cc(C)c(=O)[nH]c2=O)OC1CO (stereo unspecified)
inactive: [5] 5.07 µM | [7] 10.6 µM | [6] 4.41 µM

COCCOCCOCCOc1ccc(C(C#N)N(CCc2ccccc2)C(=O)c2cc(C(=O)N(CCc3ccccc3)C(C#N)c3ccc(OCCOCCOCCOC)cc3)cc(C(=O)N(CCc3ccccc3)C(C#N)c3ccc(OCCOCCOCCOC)cc3)c2)cc1 (stereo unspecified)
inactive: [1] > 100 µM | [2] > 100 µM | [3] > 100 µM | [4] > 100 µM

C/C(=C1\C(=O)C(c2ccccc2)N(c2ccccc2)C1=O)c1ccc(Cl)cc1 (stereo unspecified)
inactive: [1] 19.8 µM | [2] 19.7 µM | [3] 19.4 µM | [4] 18.7 µM

CC1CCCN1CCCOC(=O)c1ccc(OC2C=CCCC2)cc1 (stereo unspecified)
inactive: [1] 40.6 µM | [2] 39.5 µM | [3] 13.5 µM | [4] > 100 µM

C#CCCCC(=C)C[C@H](OCc1ccccc1)[C@H]1OC(=O)[C@@H]1C
inactive: [1] > 100 µM | [2] 22.9 µM

COc1ccc(C(=O)Oc2c(C#N)sc3c2c(=O)n(-c2ccccc2)c(=S)n3-c2ccccc2)cc1
inactive: [2] > 10 µM | [3] 33.6 µM | [4] 33 µM

CO/C=C(/C(=O)OC)[C@@H]1C[C@@H]1c1ccc2ccccc2c1
inactive: [1] 21.8 µM | [2] 20.4 µM | [3] 20.9 µM | [4] 38.9 µM

Cc1ccc(/C=C2\Cc3cccc(C)c3C2=O)c(C(=O)O)c1
inactive: [1] 62.7 µM | [2] > 100 µM | [3] 42.7 µM | [4] > 100 µM

O=C(O)CSc1ccc2nc3ccccc3c(O)c2c1
inactive: [5] > 100 µM | [7] > 100 µM | [6] > 100 µM

CN(NC(=O)c1ccc(Cl)cc1)C1=NCCCCN1
inactive: [1] > 100 µM | [2] > 100 µM | [3] > 100 µM

CC[C@@]1(N(C)C)C(=O)OCc2c1cc1n(c2=O)Cc2cc3ccccc3nc2-1
inactive: [1] 20.3 µM | [3] 18.9 µM | [4] 21.1 µM

Cc1ccc(SCC(CF)OC(C)n2cnc3c(O)nc(N)nc32)cc1 (stereo unspecified)
inactive: [1] 19.8 µM | [2] > 100 µM | [3] 49.1 µM | [4] > 100 µM

COCCOCCOC1=C(Cl)C(=O)c2c(O)ccc(O)c2C1=O
inactive: [1] 2.15 µM | [2] 5.02 µM | [3] 2.54 µM | [4] 9.31 µM

COC(=O)CCc1ccc2c(c1)[C@H](C(=O)OC)[C@@H](c1ccc(O)cc1)O2
inactive: [1] 74.5 µM | [2] > 100 µM | [3] 78.2 µM | [4] > 100 µM

CN(Cc1cnc2nc(N)nc(N)c2n1)c1ccc(C(=O)NC(CCC(=O)O)C(=O)O)cc1 (stereo unspecified)
inactive: [1] 4.07 µM
active: [4] 0.0154 µM

CN1CCC[N+](C)=C1c1ccccc1
inactive: [1] > 100 µM | [2] > 100 µM | [3] > 100 µM | [4] > 100 µM

NC(=O)C(=O)c1ncn(Cc2ccccc2)c1N
inactive: [2] > 100 µM | [3] > 100 µM | [4] > 100 µM

CC(=O)/C(=C/N1CCNC1=S)C(=O)Nc1ccccc1C
inactive: [1] > 100 µM | [2] > 100 µM | [3] > 100 µM | [4] > 100 µM

CC(C)(C)OC(=O)N1CCCC1C(=O)NC(c1ccccc1)c1ccccc1 (stereo unspecified)
inactive: [1] > 100 µM | [2] > 100 µM | [3] > 100 µM | [4] > 100 µM

COc1ccc(C(=O)OCC2OC(n3cnc4c(=S)nc[nH]c43)C(OC(=O)c3ccc(OC)cc3)C2OC(=O)c2ccc(OC)cc2)cc1 (stereo unspecified)
inactive: [5] 15 µM | [7] > 100 µM | [6] 5.65 µM

CCC1(O)C[C@H]2CN(CCCc3c([nH]c4ccccc34)[C@@](C(=O)OC)(c3cc4c(cc3OC)N(C)C3[C@](O)(C(=O)OC)[C@H](OC(C)=O)[C@]5(CC)C=CCN6CC[C@]43[C@H]65)C2)C1 (stereo partly specified)
active: [5] 0.406 µM | [7] 0.581 µM

CCCCCCCC(=O)OC[C@@H](C[As](=O)(O)O)OC(=O)CCCCCCC
inactive: [5] 12.1 µM | [7] 11.9 µM | [6] 10.4 µM

CCN(CC)Cc1sc2nc3ccccc3n2c1-c1ccc(OC)cc1
inactive: [1] 32.7 µM | [2] 2.61 µM | [4] 35.4 µM

c1ccc2c(CSCc3cccc4ccccc34)cccc2c1
inactive: [1] > 100 µM | [2] > 100 µM | [3] 53.6 µM | [4] > 100 µM

CCCCOc1ccc(CC(NC(=O)OC(C)(C)C)C(=O)NC(C)C(=O)NC(Cc2ccccc2)C(=O)NCC(N)=O)cc1 (stereo unspecified) (Boc-Y(nBu)AFG-NH2; configuration not given here)
inactive: [1] > 100 µM | [2] 61.9 µM | [3] > 100 µM | [4] > 100 µM
